Here are results for 1 compound from patent US9572890B2, “Oral formulations of mitochondrially-targeted antioxidants and their preparation and use” (MITOTECH SA, priority 2011, dated 2017).

The nature of data set [1]: Stability in dark plastic or glass vials (light sensitivity). Type of data set: physicochemical. From the text: Accordingly, one of the ways to further improve or increase stability of SkQ liquid compositions during storage and transportation is to protect it from light.
The subject of data set [2] is human endothelial cells EA.hy926. Kind of data set: TNF-α induced death of endothelial cells (MTT test). Type of data set: cell-based. The conditions noted are these: 0.2 nM pre-incubation 4 d; TNF-α 0.25 to 50 ng/ml for 2 d. As to the method:
Human endothelial cell line EA.hy926 (ATCC Collection; catalog number CRL-2922) was used as a model of vascular endothelium. This cell line is similar to primary HUVEC cell line (Edgell et al. (1983) PNAS, 80(12):3734-7; Edgell et al. (1990) In Vitro Cell Dev Biol., 26(12):1167-72) and widely used as a relevant model for inflammation studies (Riesbeck et al. (1998) Clin. Vaccine Immunol., 5:5675-682).
Accordingly, human endothelial cells EA.hy926 were pre-incubated with 0.2 nM SkQR1 or 2 nM SkQ1 solution in Dulbecco's Modified Eagle's Medium (DMEM) supplemented with 10% of fetal serum (Example 1) for 4 d. After that the cells were incubated overnight with fresh DMEM medium with 0.2% of fetal serum. The cells were incubated 2 d with TNF-α (0.25 ng/ml to 50 ng/ml) and cell death was monitored using standard MTT test (Berridge et al. (1996) Biochemica, 4:14-9). The data from this assay is shown as means±S.E. at least for 3 separate experiments.
(Tetrazolium assays rely on reduction of a dye to a coloured formazan, in cell work by metabolically active cells.)

Data set [3] in a line: Stability of MTAs in liquid solvents (degradation rate). Type of data set: physicochemical. Here is the method: Liquid solvents were also tested for their ability to stabilize representative MTAs SkQ1 and SkQR1. The solvents tested were water solutions of glycerol (10% to 100%), 50% lactulose, and 1,2-propylene glycol (10% to 100%, at 60° C.). Some representative results are shown below (Table 1).

Molecules are shown by their SMILES.

Regarding `CC/N=c1/cc2oc3cc(NCC)c(C)cc3c(-c3ccccc3C(=O)OCCCCCCCCCCC3=CC(=O)C(C)=C(C)C3=O)c-2cc1C` [SkQR1], the stability result in data set [1] is on record as “significantly increased”. Also, the “cell death compared to control without MTA” value in data set [2] is given as “greatly reduced”. The “Degradation rate, percent per day” value is 6.19 percent per day in data set [3] (100 mkM in 10% 1,2-propylene glycol, at 60° C.); 0.34 percent per day in data set [3] (100 mkM in 20% 1,2-propylene glycol, at 60° C.); 0.32 percent per day in data set [3] (100 mkM in 30% 1,2-propylene glycol, at 60° C.); 0.06 percent per day in data set [3] (100 mkM in 40% 1,2-propylene glycol, at 60° C.); less than 0.01 percent per day in data set [3] (100 mkM in 50% 1,2-propylene glycol, at 60° C.); less than 0.01 percent per day in data set [3] (100 mkM in 60% 1,2-propylene glycol, at 60° C.). The “Degradation rate, percent per day” value came out at 0.05 percent per day in data set [3] (100 mkM in 70% 1,2-propylene glycol, at 60° C.); 0.23 percent per day in data set [3] (100 mkM in 80% 1,2-propylene glycol, at 60° C.); 0.30 percent per day in data set [3] (100 mkM in 90% 1,2-propylene glycol, at 60° C.); 0.23 percent per day in data set [3] (100 mkM in 100% 1,2-propylene glycol, at 60° C.); 0.7 percent per day in data set [3] (140 mkM in 50% Glycerol).
